Test results published in patent US10464957B2, “Oxidized lipids and methods of use thereof” (Vascular Biogenics Ltd., priority 2014, dated 2019).

What was measured:
[1] = test system: human monocytes (primary CD14+); assay: Chemokine-induced cell migration trans-well assay; format: cell-based; settings: RANTES 100 ng/ml and MCP-1 50 ng/ml, 2-4 hours, FACS count
Method: Venous blood samples were obtained from healthy male donors in compliance with the Institutional Review Board at the Sheba Medical Center, Ramat Gan, Israel. PBMCs were isolated on Ficoll-Paque PLUS (GE Healthcare, Uppsala, Sweden) using 50 ml Leucosep tubes (Greiner Bio-One, Frickenhausen, Germany). Cells were washed in PBS (Kibbutz Beit Haemek, Israel) and incubated at 4° C. for 15 minutes in a buffer containing PBS and 0.5% bovine serum albumin (BSA) with human CD14 microbeads (Miltenyi Biotec, Bergisch Gladbach, Germany).
Cells (10^6/ml) were pretreated for 20 min with VB-201 or VB-701 at the doses indicated in FIG. 5, or with solvent (Sol).
To test for chemokine-induced cell migration, RANTES (100 ng/ml; Cat. No. 300-06, PeproTech, Israel) and MCP-1 (50 ng/ml; Cat. No. 300-04, PeproTech, Israel) were dissolved in RPMI-1640 medium supplemented with 0.5% fetal bovine serum (FBS) and placed at the lower chamber of QCM 24-well, […], migration assay plates (Corning-Costar, Corning, N.Y.). Cells (3×10^5) were seeded in the upper chamber and incubated for 2-4 hours. Subsequently, the number of cells which migrated to the lower compartment was determined by fluorescence-activated cell sorting (FACS).

TLR4 complex = target: T1, TLR4 complex (Homo sapiens, UniProt O00206+Q9Y6Y9); assay: LPS binding inhibition assay (biotin-LPS, FACS); settings: biotin-LPS 100 ng/ml, FACS
T1 construct: endogenous in cells; probably the human primary monocytes of b454
Method: To assess interference with lipopolysaccharide (LPS) binding, VB-201 or VB-703 were incubated for 20 min with cells (10^6/ml) after which 100 ng/ml of biotin-LPS (InvivoGen) was added for an additional 15 minutes, all at 4° C. Cells were washed, resuspended in FACS buffer and analyzed on a FACS-Calibur device.

NASH-induced mice = assay: NASH and liver fibrosis mouse model (STZ + HFD), liver histology; format: in vivo; settings: VB-703 4 mg/kg, telmisartan 10 mg/kg, once daily for three weeks
Method: Neonatal male mice exposed to low-dose streptozotocin (STZ) develop liver steatosis with diabetes. Continuous high fat diet (HFD) increases lobular inflammation with foam cell-like macrophages, showing nonalcoholic steatohepatitis (NASH) pathology. NASH was induced in 40 male mice by a single subcutaneous injection of 200 μg per mouse of STZ two days after birth and feeding HFD [57 kcal % fat]) from four weeks of age. Vehicle, VB-703 (4 mg/kg), or telmisartan (10 mg/kg) as positive control, were administered once daily for three weeks, starting from six weeks of age. Mice were sacrificed at nine weeks of age.
Liver pathology was used to determine the effect of VB-703 on liver inflammation and fibrosis. Histology slides were stained with hematoxylin/eosin (H&E) to assess inflammation. The inflammation score was determined as follows:
Histology slides were stained with Sirius red to determine collagen content as a marker for the extent of fibrosis.

nephrectomized rats = assay: 5/6 nephrectomy chronic renal disease rat model (focal and segmental glomerulosclerosis); format: in vivo, Sprague Dawley (SD) Rats; settings: VB-703 4 mg/kg
Method: Male Sprague Dawley (SD) Rats (Harlan Laboratories, Israel) with an initial weight of 200 g were housed 2-3 per cage in IVC cages in dedicated HVAC (heat, ventilation, air conditioning animal facility at a temperature of 22±2° C. and RH (relative humidity) of 55±15%). Temperature and humidity were monitored continuously. The facility had no exposure to outside light and was maintained on automatic alternating cycles of 12 hours of light and 12 hours of dark. Animals were provided with a commercial rodent diet (Harlan Teklad TRM Rat/Mouse Diet) ad libitum and allowed free access to autoclaved water, supplied to each cage via polysulphone bottles with stainless steel sipper tubes. All animal work was approved by the Animal Care and Use Committee of Israel (IL-13-03-027).
Rats were divided into three groups: (1) Healthy rats (n=3) in group A, (2) Sham group—subjected to chirurgical process but without kidney mass reduction (n=3) in group B, and (3) the rest were induced with chronic renal failure (n=32). Chronic renal failure was induced by a two stage (5/6) nephrectomy (Nx), with subtraction firstly of about ⅔ of the left kidney by left flank incision and, one week later, complete removal of the right kidney. General anesthesia consisted of intraperitoneal injection of ketamine 100 mg/kg and xylazine 20 mg/kg (0.85 ml ketamine+0.15 ml xylazine for each ml preparation; 1 μl/g BW was injected I.P).
One week following the second surgery, rats were randomly assigned to the following experimental groups:
Nephrectomized, orally administered with VB-703 4 mg/kg (n=8); and
Nephrectomized, orally administered with telmisartan 10 mg/kg as positive control (n=8).
Body weight (BW) was monitored throughout the study and rats were treated by oral gavage according to their body weight for 7 weeks. Rats were sacrificed by CO2 inhalation 8 weeks from removal of the right kidney (2nd surgery).
Proteinuria and albuminuria was determined in urine specimens, collected during a 24-hour period, from animals housed in cages at 4 weeks (3 w of treatment) and 8 weeks (7 w of treatment) after the subtotal nephrectomy (2nd surgery). Urine samples were analyzed for: glucose, urea, sodium, potassium, creatinine, total protein, and albumin.
Upon sacrifice, at 8 weeks, kidneys were collected, weighed and fixed in 4% formaldehyde.
For light microscopy, paraffin-embedded tissue slides of 4 μm were stained with Periodic Acid-Schiff (PAS) reagent, Masson's Trichrome and Hematoxylin & Eosin.
Glomerular sclerosis index. Glomerulosclerosis was assessed by PAS-stained sections using a semiquantitative scoring system. The extent of glomerulosclerosis was evaluated by examining mostly 100 randomly selected glomeruli at a magnification of ×400 and applying a score system according to the percentage of sclerosed glomerular area. The score was graded from 0 to 4: (0=0% area; 1=1-25%; 2=26-50%, 3=51-75%, 4=76% and above). The mean of all scored glomeruli was presented. Moreover, the extent of global and segmental glomerulosclerosis was evaluated in the same glomeruli, where <80% sclerosis was referred to as segmental and >80% was referred to as global.
Glomerular area. The glomerular area of mostly 100 randomly selected glomeruli at a magnification of ×100 was quantitated by counting squares covered by glomeruli area using a grid and the mean glomeruli area was calculated.
Renal tissues were fixed in 4% formaldehyde and embedded in paraffin. The paraffin-embedded tissues were then cut to form tissue slides of 4 μm. Immunohistochemistry of the paraffin-embedded tissue slides was analyzed using antibodies in the following concentration: monoclonal mouse anti rat CD-68 (ED-1, Serotec MCA341) 1:25. For quantitation of interstitial CD68+ staining, the number of positive cells was counted in 20 randomly selected non-overlapping fields per animal, and the mean value was presented. […]

[2] = test system: kidney of nephrectomized rats; assay: Real-time PCR of pro-fibrotic markers in kidney of nephrectomized rats; format: in vivo, Sprague Dawley (SD) Rats
Method: Kidney RNA was extracted with an RNeasy Fibrous Tissue Mini kit (Qiagen) and after DNAse I treatment, single-stranded cDNA was synthesized from 2 μg total RNA using the qScript cDNA Synthesis Kit (Quanta Biosciences) and diluted for real-time PCR. The expression of collagen 4α, fibronectin and TGFβ was quantified using the 7300 Real Time PCR System (Applied Biosystems). The assay was performed according to manufacturer instructions using the primers (Assay ID) represented at the table below supplied by Applied Biosystems. Data were normalized to the reference gene TATA box Binding Protein (TBP) and presented as relative mRNA levels compared with Sham PBS 0.5% Eth treatment (Table 1).

[3] = Nx rats, Telmisartan 10 mg/kg, 8 weeks, Mean ± S.E
[4] = telmisartan 10 mg/kg, oral 7 weeks, vs Nx PBS 0.5% Eth
[5] = compared to Nx PBS 0.5% Eth treatment, VB-703 4 mg/kg, telmisartan 10 mg/kg
[6] = normalized to TBP, relative to Sham PBS 0.5% Eth, mean±SEM

T1 sequence (O00206 24-839): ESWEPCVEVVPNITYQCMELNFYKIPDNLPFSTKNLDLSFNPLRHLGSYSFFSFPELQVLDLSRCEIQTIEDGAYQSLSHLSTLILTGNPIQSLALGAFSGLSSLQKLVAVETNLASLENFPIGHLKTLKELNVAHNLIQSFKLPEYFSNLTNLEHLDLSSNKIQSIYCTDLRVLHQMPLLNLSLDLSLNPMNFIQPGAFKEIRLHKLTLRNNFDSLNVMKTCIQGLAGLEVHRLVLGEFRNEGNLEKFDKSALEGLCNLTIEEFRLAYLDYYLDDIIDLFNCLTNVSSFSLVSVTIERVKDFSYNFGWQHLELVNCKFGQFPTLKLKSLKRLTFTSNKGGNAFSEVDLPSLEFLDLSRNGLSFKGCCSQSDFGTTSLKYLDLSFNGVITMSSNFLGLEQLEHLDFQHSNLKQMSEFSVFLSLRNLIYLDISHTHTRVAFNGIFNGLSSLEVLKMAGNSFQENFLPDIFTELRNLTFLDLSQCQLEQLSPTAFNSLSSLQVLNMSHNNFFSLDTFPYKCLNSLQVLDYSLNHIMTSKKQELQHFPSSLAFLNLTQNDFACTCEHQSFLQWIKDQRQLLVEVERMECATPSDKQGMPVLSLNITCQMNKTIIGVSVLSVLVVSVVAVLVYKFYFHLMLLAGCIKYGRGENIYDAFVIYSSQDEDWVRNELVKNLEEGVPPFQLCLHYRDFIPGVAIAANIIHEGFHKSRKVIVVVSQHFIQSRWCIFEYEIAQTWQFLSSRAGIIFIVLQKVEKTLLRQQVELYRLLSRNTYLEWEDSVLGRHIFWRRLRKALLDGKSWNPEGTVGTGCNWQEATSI
T1 sequence (Q9Y6Y9 17-160 limits assumed): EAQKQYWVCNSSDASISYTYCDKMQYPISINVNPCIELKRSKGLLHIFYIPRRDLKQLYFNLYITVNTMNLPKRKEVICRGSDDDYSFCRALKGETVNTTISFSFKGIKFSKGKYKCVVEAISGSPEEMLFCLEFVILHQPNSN

Row | Structure (SMILES) | chemokine-induced migration of human monocytes [1] | LPS-biotin binding to human monocytes (primary CD14+) (TLR4 complex) | decrease of liver fibrosis compared to vehicle treated mice (Sirius red) (NASH-induced mice) | Glomerular sclerosis Global % (nephrectomized rats; [3]) | Glomerular sclerosis Global & Segmental % (nephrectomized rats; [3]) | Glomerular sclerosis Segmental % (nephrectomized rats; [3]) | glomerular and interstitial monocyte/macrophage infiltration (CD68 positive cells) (nephrectomized rats; telmisartan 10 mg/kg, 8 weeks) | reduction of damaged glomeruli percent (nephrectomized rats; [4]) | reduction of sclerotic glomeruli (nephrectomized rats; [4]) | reduction of Collagen IV expression [2, 5] | reduction of TGF-β expression [2, 5] | reduction of fibronectin expression [2, 5] | Collagen IV mRNA expression (relative mRNA level) [2, 6] | TGF-β mRNA expression (relative mRNA level) [2, 6] | fibronectin mRNA expression (relative mRNA level) [2, 6]
1 | CCCCCCCCCCCCCCCCOCC(COP(=O)([O-])OCC[n+]1ccccc1)OCCCCC(=O)OC (stereo not drawn) [VB-704, 1-hexadecyl-2-(4′-carboxymethyl)butyl-glycero-sn-3-phosphoric acid pyridiniumethyl ester] | inhibits | does not inhibit |  |  |  |  |  |  |  |  |  |  |  |  | 
2 | CCCc1nc2c(C)cc(-c3nc4ccccc4n3C)cc2n1Cc1ccc(-c2ccccc2C(=O)O)cc1 [telmisartan, reference compound] |  |  | 47% | 1.9 ± 1.60% | 21.0 ± 5.45% | 19.1 ± 4.30% | did not produce a significant effect | 31% | 57% | 41% | 44% | 23% | 4.4±0.23 | 4.7±0.52 | 9.8±2.09
